We go through 25 molecules from patent US12187742B2 (XRAD Therapeutics, Inc., priority 2018, dated 2025).

Counter-ions that a name gives are not always drawn.

By IC50 is commonly meant the concentration at which inhibition is half-maximal. A lower IC50 goes with inhibition by little substance.

In this test the target is ATM (Homo sapiens (Human), UniProt Q13315). The experiment in a line: ATM in Cell Western Assay (pKAP1 in etoposide-treated MCF-7 cells). Format: cell-based. On the procedure:
Assay of Compounds ATM and DNA-PK Inhibition
ATM in Cell Western Assay:
Next day, add corresponding concentration of compounds using pin tool (Echo 550), the final top concentration is 1 μM, 3-fold series dilution, total 10 doses. Then add etoposide (Sigma, #E1383) to a final concentration of 100 μM. Incubate at 37° C. for 1 hr. Fix cells by adding 25 μL of fixing solution (8% paraformaldehyde) for 20 minutes at ambient temperature. Permeabilize cells for 5 washes with 1×PBS (phosphate buffered saline) containing 0.1% Triton X-100; each wash is for 5 minutes. […] The next day, wash the plate 5 times with 1×PBST (1×PBS containing 0.1% Tween-20). […] Wash the cells for 5 times with 1×PBST (1×PBS containing 0.1% Tween-20) at ambient temperature, using gentle shaking in the dark. After the last wash
remove wash solution, turn plate upside down onto a thin paper towel and centrifuge at 1000 rpm for 1 min to absorb all wash buffer. Clean the bottom of plate with moist lint free paper. Scan plate immediately using ODYSSEY CLx (LI-COR) for the best results.

Setting [1] is: pKAP1 in etoposide-treated MCF-7 cells.
The mark [2] stands for this setting: MCF-7 cells, etoposide 100 μM, 1 hr, pKAP1 readout.

Chain of ATM (Q13315 whole entry): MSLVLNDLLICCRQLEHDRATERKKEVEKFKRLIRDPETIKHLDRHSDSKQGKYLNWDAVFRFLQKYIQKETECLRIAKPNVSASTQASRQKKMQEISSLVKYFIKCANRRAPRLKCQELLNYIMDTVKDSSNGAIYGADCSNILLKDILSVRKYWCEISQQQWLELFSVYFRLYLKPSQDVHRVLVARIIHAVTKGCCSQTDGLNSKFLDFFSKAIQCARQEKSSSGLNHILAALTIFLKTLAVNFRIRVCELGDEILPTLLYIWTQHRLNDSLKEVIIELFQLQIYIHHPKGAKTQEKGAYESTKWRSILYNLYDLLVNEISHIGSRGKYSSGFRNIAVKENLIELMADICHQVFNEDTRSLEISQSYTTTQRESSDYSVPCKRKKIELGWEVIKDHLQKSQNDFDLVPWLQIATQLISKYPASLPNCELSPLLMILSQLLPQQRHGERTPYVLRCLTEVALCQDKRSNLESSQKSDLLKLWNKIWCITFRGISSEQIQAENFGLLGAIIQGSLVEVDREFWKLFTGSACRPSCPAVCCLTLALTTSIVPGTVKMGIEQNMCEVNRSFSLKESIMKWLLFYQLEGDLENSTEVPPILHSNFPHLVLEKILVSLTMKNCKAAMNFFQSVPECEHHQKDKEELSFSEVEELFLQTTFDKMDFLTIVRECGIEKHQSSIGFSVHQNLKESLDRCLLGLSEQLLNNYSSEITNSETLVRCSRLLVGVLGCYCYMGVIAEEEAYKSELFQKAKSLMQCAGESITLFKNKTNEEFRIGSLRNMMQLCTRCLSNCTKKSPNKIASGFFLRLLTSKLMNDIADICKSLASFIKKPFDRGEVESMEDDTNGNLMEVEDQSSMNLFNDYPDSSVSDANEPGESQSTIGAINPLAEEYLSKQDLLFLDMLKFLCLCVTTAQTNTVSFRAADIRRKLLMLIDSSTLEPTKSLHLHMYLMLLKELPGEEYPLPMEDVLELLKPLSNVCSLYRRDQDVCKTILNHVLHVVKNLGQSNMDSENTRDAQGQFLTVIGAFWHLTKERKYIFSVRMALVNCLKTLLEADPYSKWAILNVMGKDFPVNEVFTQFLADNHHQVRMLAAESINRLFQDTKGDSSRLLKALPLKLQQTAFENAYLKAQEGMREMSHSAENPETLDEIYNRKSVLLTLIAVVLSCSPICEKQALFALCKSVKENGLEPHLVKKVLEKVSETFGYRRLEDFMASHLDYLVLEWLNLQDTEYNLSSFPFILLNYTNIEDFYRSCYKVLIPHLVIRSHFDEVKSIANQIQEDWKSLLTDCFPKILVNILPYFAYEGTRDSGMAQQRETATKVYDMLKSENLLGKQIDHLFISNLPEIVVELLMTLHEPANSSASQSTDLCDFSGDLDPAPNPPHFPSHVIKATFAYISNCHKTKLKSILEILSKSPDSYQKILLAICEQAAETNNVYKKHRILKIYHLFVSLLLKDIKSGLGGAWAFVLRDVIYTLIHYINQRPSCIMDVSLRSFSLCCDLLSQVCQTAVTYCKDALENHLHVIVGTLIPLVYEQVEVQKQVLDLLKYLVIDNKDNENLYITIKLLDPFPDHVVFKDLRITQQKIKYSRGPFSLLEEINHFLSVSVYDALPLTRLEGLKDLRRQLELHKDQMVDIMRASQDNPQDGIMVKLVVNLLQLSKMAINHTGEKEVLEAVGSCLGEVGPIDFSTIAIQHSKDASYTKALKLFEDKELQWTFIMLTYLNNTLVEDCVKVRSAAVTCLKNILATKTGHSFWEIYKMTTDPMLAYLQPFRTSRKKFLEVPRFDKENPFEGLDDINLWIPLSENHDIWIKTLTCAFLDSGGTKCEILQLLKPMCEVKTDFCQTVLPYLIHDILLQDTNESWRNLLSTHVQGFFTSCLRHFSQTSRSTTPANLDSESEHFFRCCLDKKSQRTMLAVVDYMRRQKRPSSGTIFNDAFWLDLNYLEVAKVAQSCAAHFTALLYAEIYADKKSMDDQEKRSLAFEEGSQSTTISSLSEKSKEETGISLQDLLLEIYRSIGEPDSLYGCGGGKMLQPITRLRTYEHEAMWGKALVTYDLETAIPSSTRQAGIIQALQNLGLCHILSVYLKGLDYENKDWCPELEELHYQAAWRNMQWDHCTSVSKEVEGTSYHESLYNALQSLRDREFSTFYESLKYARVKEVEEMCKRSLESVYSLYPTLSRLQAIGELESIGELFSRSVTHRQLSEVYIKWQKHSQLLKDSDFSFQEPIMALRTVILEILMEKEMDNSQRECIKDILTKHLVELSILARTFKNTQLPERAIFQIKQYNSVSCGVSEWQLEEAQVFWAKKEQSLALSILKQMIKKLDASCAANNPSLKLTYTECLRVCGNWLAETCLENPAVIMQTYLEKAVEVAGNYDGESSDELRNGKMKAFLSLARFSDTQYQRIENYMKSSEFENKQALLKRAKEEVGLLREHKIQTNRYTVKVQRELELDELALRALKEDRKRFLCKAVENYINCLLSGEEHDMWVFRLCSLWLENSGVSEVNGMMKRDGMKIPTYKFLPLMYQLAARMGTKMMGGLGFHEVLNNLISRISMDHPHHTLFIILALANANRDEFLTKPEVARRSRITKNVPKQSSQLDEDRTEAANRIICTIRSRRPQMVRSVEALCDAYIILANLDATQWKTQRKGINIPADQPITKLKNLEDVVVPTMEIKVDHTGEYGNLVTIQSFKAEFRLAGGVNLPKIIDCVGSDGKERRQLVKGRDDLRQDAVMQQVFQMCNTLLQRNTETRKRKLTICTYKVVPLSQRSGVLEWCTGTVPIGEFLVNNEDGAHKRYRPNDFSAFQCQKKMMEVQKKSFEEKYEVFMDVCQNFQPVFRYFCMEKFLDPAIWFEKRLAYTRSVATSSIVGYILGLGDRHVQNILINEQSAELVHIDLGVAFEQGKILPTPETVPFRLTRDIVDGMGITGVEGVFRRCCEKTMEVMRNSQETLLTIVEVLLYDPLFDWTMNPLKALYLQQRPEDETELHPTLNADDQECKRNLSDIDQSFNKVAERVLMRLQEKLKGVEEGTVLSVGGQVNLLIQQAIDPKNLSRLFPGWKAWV

Take `CN(C)CCCOc1c(NS(C)(=O)=O)cc(-c2ccc3ncc4c(c3c2)C2(CCC2)C(=O)N4C)cc1C(N)=O` [Example 449, 2-(3-(Dimethylamino)propoxy)-5-(3′-methyl-2′-oxo-2′,3′-dihydrospiro[cyclobutane-1,1′-pyrrolo[2,3-c]quinolin]-8′-yl)-3-(methylsulfonamido)benzamide]: the IC50 under setting [1] was 1 to 100 nM.
The same measure, in the same setting: for `CC(C)NCCOc1ncc(-c2cc3c(cc2F)ncc2c3[C@]3(C[C@@H](N4CCOCC4)C3)C(=O)N2C)cc1NS(C)(=O)=O` [Example 472, trans-N-(5-(7′-Fluoro-3′-methyl-3-morpholino-2′-oxo-2′,3′-dihydrospiro[cyclobutane-1,1′-pyrrolo[2,3-c]quinolin]-8′-yl)-2-(2-(isopropylamino)ethoxy)pyridin-3-yl)methanesulfonamide] the value was greater than 100 nM.
`CN(C)c1ccc(-c2ncc(-c3ccc4ncc5c(c4c3)C3(CCC3)C(=O)N5C)cc2NS(C)(=O)=O)cn1` [Example 271, N-(6′-(Dimethylamino)-5-(3′-methyl-2′-oxo-2′,3′-dihydrospiro[cyclobutane-1,1′-pyrrolo[2,3-c]quinolin]-8′-yl)-[2,3′-bipyridin]-3-yl)methanesulfonamide] gave an IC50 under setting [2] of 1 to 100 nM.
The same measure, in the same setting: in the case of `CN1C(=O)C2(CC2)c2c1cnc1ccc(-c3cccc4[nH]ncc34)cc21` [Example 50, 8′-(1H-indazol-4-yl)-3′-methylspiro[cyclopropane-1,1′-pyrrolo[2,3-c]quinolin]-2′(3′-H)-one] it was greater than 100 nM.
Take `CC(C)NCCOc1ncc(-c2cc3c4c(cnc3cc2F)N(C)C(=O)C42CN(CC(F)F)C2)cc1NS(C)(=O)=O` [Example 508, N-(5-(1-(2,2-Difluoroethyl)-7′-fluoro-3′-methyl-2′-oxo-2′,3′-dihydrospiro[azetidine-3,1′-pyrrolo[2,3-c]quinolin]-8′-yl)-2-(2-(isopropylamino)ethoxy)pyridin-3-yl)methanesulfonamide]: the half-inhibitory concentration (IC50) under setting [1] lay in the range of 1 to 100 nM.
As for `Cc1ccc(S(=O)(=O)Nc2cc(-c3ccc4ncc5c(c4c3)C3(CCC3)C(=O)N5C)cnc2OCCCN2CCC(F)(F)CC2)cc1` [Example 152, hydrochloride], the IC50 under setting [2] fell in the range of 1 to 100 nM.
Under setting [1], `CC(C)NCCOc1ncc(-c2cc3c(cc2F)ncc2c3[C@]3(C[C@@H](OC(C)C)C3)C(=O)N2C)cc1NS(C)(=O)=O` [Example 396, trans-N-(5-(7′-Fluoro-3-isopropoxy-3′-methyl-2′-oxo-2′,3′-dihydrospiro[cyclobutane-1,1′-pyrrolo[2,3-c]quinolin]-8′-yl)-2-(2-(isopropylamino)ethoxy)pyridin-3-yl)methanesulfonamide] registered an IC50 of 1 to 100 nM.
The molecule `CN(C)CCCOc1ncc(-c2ccc3ncc4c(c3c2)C2(CC2)C(=O)N4C)cc1NS(=O)(=O)c1cccnc1` [Example 85] came in with an IC50 under setting [2] of 1 to 100 nM.
The molecule `CC(C)NCCOc1ncc(-c2cc3c4c(cnc3cc2F)N(C)C(=O)C42CN(c3ncccn3)C2)cc1NS(C)(=O)=O` [Example 551, N-(5-(7′-Fluoro-3′-methyl-2′-oxo-1-(pyrimidin-2-yl)-2′,3′-dihydrospiro[azetidine-3,1′-pyrrolo[2,3-c]quinolin]-8′-y))-2-(2-(isopropylamino)ethoxy)pyridin-3-yl)methanesulfonamide hydrochloride] registered an IC50 under setting [1] greater than 100 nM.
Consider `CN1C(=O)C2(CC2)c2c1cnc1ccc(-c3cncc(C(C)(C)O)c3)cc21` [Example 25, 8′-(5-(2-Hydroxypropan-2-yl)pyridin-3-yl)-3 methylspiro[cyclopropane-1,1′-pyrrolo[2,3-c]quinolin]-2′(3′-H)-one], for which the IC50 under setting [2] was greater than 100 nM.
The same measure, in the same setting: in the case of `COc1ncc(-c2ccc3ncc4c(c3c2)C2(CC2)C(=O)N4C)cc1S(=O)(=O)c1ccccc1` [Example 36] it was greater than 100 nM; in that of `CN1C(=O)C2(CC2)c2c1cnc1ccc(-c3ccc4nccnc4c3)cc21` [Example 39, 3′-Methyl-8′-(quinoxalin-6-yl)spiro[cyclopropane-1,1′-pyrrolo[2,3-c]quinolin]-2′(3′-H)-one], greater than 100 nM.
Take `CC(C)NCCOc1ncc(-c2cc3c(cc2F)ncc2c3[C@]3(C[C@H](O)C3)C(=O)N2C)cc1NS(C)(=O)=O` [Example 381, cis-N-(5-(7′-Fluoro-3-hydroxy-3′-methyl-2′-oxo-2′,3′-dihydrospiro[cyclobutane-1,1′-pyrrolo[2,3-c]quinolin]-8′-yl)-2-(2-(isopropylamino)ethoxy)pyridin-3-yl)methanesulfonamide hydrochloride]: the IC50 under setting [1] lay in the range of 1 to 100 nM.
`CC(C)NCCOc1ncc(-c2ccc3ncc4c(c3c2F)C2(CCC2)C(=O)N4C)cc1NS(C)(=O)=O` [Example 556, N-(5-(9′-Fluoro-3′-methyl-2′-oxo-2′,3′-dihydrospiro[cyclobutane-1,1′-pyrrolo[2,3-c]quinolin]-8′-yl)-2-(2-(isopropylamino)ethoxy)pyridin-3-yl)methanesulfonamide hydrochloride] showed an IC50 under setting [1] of 1 to 100 nM.
As to `CN1C(=O)C2(CCC2)c2c1cnc1cc(F)c(-c3cnc(N4CC(N(C)C)C4)c(NS(=O)(=O)c4ccccc4F)c3)cc21` [Example 322, N-(2-(3-(Dimethylamino)azetidin-1-yl)-5-(7′-fluoro-3′-methyl-2′-oxo-2′,3′-dihydrospiro[cyclobulane-1,1′-pyrrolo[2,3-c]quinolin]-8′-yl)pyridin-3-yl)-2-fluorobenzenesulfonamide hydrochloride], the IC50 under setting [2] is 1 to 100 nM.
`COc1ncc(-c2ccc3ncc4c(c3c2)C2(CCC2)C(=O)N4C)cc1S(=N)(=O)c1ccccc1` (racemic) [Example 151, rac-8′-(6-Methoxy-5-(phenylsulfonimidoyl)pyridin-3-yl)-3′-methylspiro[cyclobutane-1,1′-pyrrolo[2,3-c]quinolin]-2′(3′H)-one] came in with an IC50 under setting [2] greater than 100 nM.
On the same count and under the same terms, for `CN1C(=O)C2(CCC2)c2c1cnc1ccc(-c3cnc(OCCCN4CC(F)(F)C4)c(NS(C)(=O)=O)c3)cc21` [Example 307, N-(2-(3-(3,3-Difluoroazetidin-1-yl)propoxy)-5-(3′-methyl-2′-oxo-2′,3′-dihydrospiro[cyclobutane-1,1′-pyrrolo[2,3-c]quinolin]-8′-yl)pyridin-3-yl) methanesulfonamide formate] the value was greater than 100 nM; for `CN1C(=O)C2(CC2)c2c1cnc1ccc(-c3cnc(Cl)c(C(C)(C)O)c3)cc21` [Example 28, 8′-(6-Chloro-5-(2-hydroxypropan-2-yl)pyridin-3-yl)-3′-methylspiro[cyclopropane-1,1′-pyrrolo[2,3-c]quinolin]-2′(3′-H)-one], greater than 100 nM.
For `CC(C)NCCOc1ncc(-c2cc3c(cc2F)ncc2c3[C@]3(C[C@H](N4CCCCC4)C3)C(=O)N2C)cc1NS(C)(=O)=O` [Example 469, cis-N-(5-(7′-Fluoro-3′-methyl-2′-oxo-3-(piperidin-1-yl)-2′,3′-dihydrospiro[cyclobutane-1,1′-pyrrolo[2,3-c]quinolin]-8′-yl)-2-(2-(isopropylamino)ethoxy)pyridin-3-yl)methanesulfonamide], the IC50 under setting [1] is 1 to 100 nM.
The same measure, in the same setting: in the case of `CN1C(=O)C2(CCC2)c2c1cnc1ccc(-c3cnc(N4CC5CC(C4)N5)c(NS(C)(=O)=O)c3)cc21` [Example 360, N-(2-(3,6-Diazabicyclo[3.1.1]heptan-3-yl)-5-(3′-methyl-2′-oxo-2′,3′-dihydrospiro[cyclobutane-1,1′-pyrrolo[2,3-c]quinolin]-8′-yl)pyridin-3-yl) methanesulfonamide formate] it was greater than 100 nM; in that of `CC(C)NCCOc1ncc(-c2cc3c4c(cnc3cc2F)N(C)C(=O)C42CN([C@H](C)c3ccccc3)C2)cc1NS(C)(=O)=O` [Example 494], greater than 100 nM; in that of `CC(C)NCCOc1ncc(-c2cc3c4c(nnc3cc2F)N(C)C(=O)C42CCC2)cc1NS(C)(=O)=O` [Example 558, N-(5-(7′-Fluoro-3′-methyl-2′-oxo-2′,3′-dihydrospiro[cyclobutane-1,1′-pyrrolo [2,3-c]cinnolin]-8′-yl)-2-(2-(isopropylamino)ethoxy)pyridin-3-yl)methanesulfonamide], greater than 100 nM.
Still for that read-out and setting: in the case of `COC(=O)N1CC2(C1)C(=O)N(C)c1cnc3cc(F)c(-c4cnc(OCCNC(C)C)c(NS(C)(=O)=O)c4)cc3c12` [Example 513, Methyl7′-fluoro-8′-(6-(2-(isopropylamino)ethoxy)-5-(methylsulfonamido)pyridin-3-yl)-3′-methyl-2′-oxo-2′,3′-dihydrospiro[azetidine-3,1′-pyrrolo[2,3-c]quinoline]-1-carboxylate] it was greater than 100 nM.
`CC(C)NCCOc1ncc(-c2cc3c4c(cnc3cc2F)N(C)C(=O)C42CN(C3CCCCC3)C2)cc1NS(C)(=O)=O` [Example 499, N-(5-(1-Cyclohexyl-7′-fluoro-3′-methyl-2′-oxo-2′,3′-dihydrospiro[azetidine-3,1′-pyrrolo[2,3-c]quinolin]-8′-yl)-2-(2-(isopropylamino)ethoxy)pyridin-3-yl)methanesulfonamide] registered an IC50 under setting [1] of 1 to 100 nM.
For `CC(C)NCCOc1ncc(-c2cc3c4c(cnc3cc2F)N(C)C(=O)C42CN([C@H]3CC[C@H](O)CC3)C2)cc1NS(C)(=O)=O` [Example 505, N-(5-(7′-Fluoro-1-(trans-4-hydroxycyclohexyl)-3′-methyl-2′-oxo-2′,3′-dihydrospiro[azetidine-3,1′-pyrrolo[2,3-c]quinolin]-8′-yl)-2-(2-(isopropylamino)ethoxy)pyridin-3-yl)methanesulfonamide], under setting [1], the IC50 is greater than 100 nM.
